Assay: Toxicity (mouse LD50)
Type: in vivo

With `c1ccc(C2CN3CCSC3=N2)cc1` (stereo not shown) [levamisole, 2,3,5,6-tetrahydro-6-phenyl-imidazo[2,1-b]thiazole] the toxicity was “devoid of toxicity”.
